From BigSolDB 2.1

COc1cc(C2Oc3cc(C4Oc5cc(O)cc(O)c5C(=O)C4O)ccc3OC2CO)ccc1O (stereo not given)
Conditions	solubility (mole fraction)
in PEG-400, 298.15 K	0.24
in PEG-400, 303.15 K	0.26
in PEG-400, 313.15 K	0.29
in PEG-400, 323.15 K	0.34
in PEG-400, 333.15 K	0.38

solubility (mole fraction)
Conditions	298.15 K	303.15 K	313.15 K	323.15 K	333.15 K
in ethanol	0.0167	0.0174	0.0193	0.0208	0.0227
in isopropanol	0.00448	0.00477	0.00524	0.00593	0.00662
in water	1.46e-05	1.68e-05	2.09e-05	2.54e-05	3.06e-05
